According to patent US12673052B2, “Combinations for the treatment of cancer” (Exelixis, Inc., priority 2020, dated 2026):
Read-outs that look alike come from different tables or passages of the source.

Legend:
[1] = target: BCRP (Homo sapiens, UniProt Q9UNQ0); test: Transporter interaction study (substrate and inhibition); format: in vitro ADME
Protocol: Plasma PK of Compound 1 was characterized in rats and beagle dogs. Toxicokinetic (TK) evaluations of oral Compound 1 were evaluated in repeat-dose studies in rats and dogs. Plasma protein binding was determined in mouse, rat, dog, monkey, and human plasma in vitro. Biotransformation and metabolite profiling of Compound 1 were investigated in vitro using mouse, rat, dog, monkey, and human liver microsomal fractions and hepatocytes and in vivo in rats and dogs. P-glycoprotein (P-gp) and breast cancer resistance protein (BCRP) transporter interaction studies, in vitro experiments evaluating cytochrome P450 (CYP) induction and inhibition by Compound 1, and CYP and glucuronosyltransferase (UGT) substrate specificity studies of Compound 1 were also performed.

[2] = Phase 1 first-in-human Study Compound 1-001 (NCT03845166): plasma pharmacokinetics; format: in vivo; conditions: for Cmax / AUC(0-t) / Tmax / half-life / Tmax at 28 days / half-life at 28 days: human, plasma, oral; for AUC(0-t): read-out: AUC0-24
Text: The maximum tolerated dose (MTD) and/or recommended dose (RD) of Compound 1 single-agent therapy and ICI combination therapy will be determined in a Dose-Escalation Stage. The preliminary efficacy of Compound 1 as single agent and as ICI combination therapy will be determined in a Cohort-Expansion Stage with tumor-specific expansion cohorts. As of 14 Dec. 2020, dose escalation of Compound 1 as single agent and in combination therapy with atezolizumab was ongoing: 19 subjects were enrolled in single agent cohorts across six dose levels (PIB: 10, 20 mg; Tablet: 20, 40, 80, 140 mg); three subjects were enrolled in combination therapy with atezolizumab at one dose level (Compound 1 40 mg po qd plus atezolizumab 1200 mg IV q3w). As of 14 Dec. […] The majority of reported adverse events (AEs) were of low-grade severity (Grade 1-2) with five subjects having experienced treatment-related Grade 3 events.
As of 14 Dec. 2020, preliminary Compound 1 clinical PK data are available from 17 subjects in the single agent Dose-Escalation Stage of Study Compound 1-001 (n=3 for 10 mg liquid formulation [PIB]; n=4 for 20 mg liquid formulation [PIB]; n=3 for 20 mg tablet; n =4 for 40 mg tablet; n=3 for 80 mg tablet). In addition, PK of Compound 1 was evaluated when given in the combination with atezolizumab. PK data from a total of 3 subjects enrolled in the Combination Cohort 1 (40 mg Compound 1 qd+1200 mg atezolizumab q3w) are available. A summary of all available PK parameters estimated by non-compartmental approach using individual plasma concentration-time data from a single agent Compound 1 is presented in Table 1. Mean (standard deviation [SD]) plasma Compound 1 concentration-time profiles following a single agent PIB or tablet formulation are illustrated in FIG. 8.
• Blood samples to assess the PK of Compound 1 and its potential metabolites will be obtained during the DLT Evaluation Period: • On the date of first dose of study treatment (prior to study treatment administration) at hourly intervals up to 8 hours postdose on W1D1 and W4D7 (Day 28) • Predose on W1D2 • Predose and 2 hours postdose on W2D1, W3D1, and W4D1 • During the Washout Period on W5D1, W5D2, W5D3, and W5D5 (W5D2, W5D3, and W5D5 PK samples are not required for biomarker cohorts.) • Blood samples for PK analysis will be obtained after the DLT Evaluation and Washout Periods • Predose and 2 hours postdose on W6D1, W9D1, and W13D1.

[3] = 10 mg PIB, Steady-State (Day 28), mean ± SD
[4] = 20 mg PIB, Steady-State (Day 28), N = 3, mean ± SD
[5] = 20 mg Tablet, Steady-State (Day 28), mean ± SD
[6] = 40 mg Tablet, Steady-State (Day 28), mean ± SD
[7] = 80 mg Tablet, Steady-State (Day 28), mean ± SD
[8] = 10 mg, 10 mg PIB, First Dose (Day 1), mean ± SD
[9] = 10 mg, 10 mg PIB, Steady-State (Day 28), mean ± SD
[10] = 20 mg, 20 mg PIB, First Dose (Day 1), mean ± SD
[11] = 20 mg, 20 mg PIB, Steady-State (Day 28), N = 3, mean ± SD
[12] = 20 mg, 20 mg Tablet, First Dose (Day 1), mean ± SD
[13] = 20 mg, 20 mg Tablet, Steady-State (Day 28), mean ± SD
[14] = 40 mg, 40 mg Tablet, First Dose (Day 1), mean ± SD
[15] = 40 mg, 40 mg Tablet, Steady-State (Day 28), mean ± SD
[16] = 80 mg, 80 mg Tablet, First Dose (Day 1), mean ± SD
[17] = 80 mg, 80 mg Tablet, Steady-State (Day 28), mean ± SD

Chain of BCRP (Q9UNQ0 whole entry): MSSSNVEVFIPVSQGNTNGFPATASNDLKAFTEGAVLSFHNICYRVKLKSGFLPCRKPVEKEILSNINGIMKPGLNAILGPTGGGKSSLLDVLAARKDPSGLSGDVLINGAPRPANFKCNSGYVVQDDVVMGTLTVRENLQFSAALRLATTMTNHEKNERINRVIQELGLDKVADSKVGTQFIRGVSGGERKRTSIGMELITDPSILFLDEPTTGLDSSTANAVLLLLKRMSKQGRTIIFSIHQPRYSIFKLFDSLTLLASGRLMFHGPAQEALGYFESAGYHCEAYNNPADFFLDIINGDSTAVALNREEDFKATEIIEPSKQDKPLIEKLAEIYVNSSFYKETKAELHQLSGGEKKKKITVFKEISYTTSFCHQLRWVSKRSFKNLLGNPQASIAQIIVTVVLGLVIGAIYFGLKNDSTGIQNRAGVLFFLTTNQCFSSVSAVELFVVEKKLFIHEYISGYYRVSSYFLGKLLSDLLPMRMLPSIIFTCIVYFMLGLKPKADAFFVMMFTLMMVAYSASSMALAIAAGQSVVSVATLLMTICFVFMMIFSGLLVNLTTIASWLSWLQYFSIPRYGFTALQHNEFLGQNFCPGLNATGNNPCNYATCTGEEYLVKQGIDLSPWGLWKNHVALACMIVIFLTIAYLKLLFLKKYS

Which substrate of transporter [1] does the source give for CNC(=O)c1cc2c(Oc3ccc(NC(=O)C4(C(=O)Nc5ccc(F)cc5)CC4)cc3)ccnc2cc1OC [Compound 1, 1-N′-(4-Fluorophenvl)-1-N-[4-[7-methoxy-6-(methylcarbamovl)quinolin-4-yl]oxyphenyl]cyclopropane-1,1-dicarboxamide] here?
Its substrate of transporter is “not to be a substrate”.

And the IC50 ([1]; strong inhibitor)?
Its IC50 is 189 nM.

And the “AR AUC0-24 (accumulation ratio)” value [2, 3]?
The value was 1.92 ± 0.593.

What about the “AR Cmax (accumulation ratio)” value [2, 3] of the same molecule?
Its value is 2.76 ± 0.609.

What about the “AR AUC0-24 (accumulation ratio)” value [2, 4] of the same molecule?
Its value is 3.61 ± 4.09.

And the “AR Cmax (accumulation ratio)” value [2, 4]?
The value was 4.09 ± 5.40.

And the “AR AUC0-24 (accumulation ratio)” value [2, 5]?
Its value is 1.33 ± 0.136.

And the “AR Cmax (accumulation ratio)” value [2, 5]?
Its value is 1.30 ± 0.374.

What about the “mean exposure of Compound 1 (Cmax and AUC0-24) in combination with atezolizumab relative to single agent” value ([2]; 40 mg Compound 1 qd + 1200 mg atezolizumab q3w, steady-state, lower in combination) of the same molecule?
Its value is “approximately 2 fold”.

What about the “AR AUC0-24 (accumulation ratio)” value [2, 6] of the same molecule?
Its value is 1.46 ± 0.286.

And the “AR Cmax (accumulation ratio)” value [2, 6]?
The value was 1.27 ± 0.0979.

And the “AR AUC0-24 (accumulation ratio)” value [2, 7]?
The value was 1.88 ± 0.947.

And the “AR Cmax (accumulation ratio)” value [2, 7]?
Its value is 1.67 ± 0.636.

What about the “accumulation at steady state” value ([2]; 20-mg tablet) of the same molecule?
The value was under 2 fold.

And the “increase of mean exposure (AUC0-24) with dose” value ([2]; PIB 10 mg to 20 mg, Day 1)?
Its value is “approximately dose proportionally”.

What about the “Mean PK exposure (Cmax and AUC0-24) of 20 mg tablet relative to 20 mg PIB” value ([2]; first dose Day 1, tablet higher) of the same molecule?
Its value is “approximately 3.7 fold”.

And the “increase of exposure with dose” value ([2]; first dose, 20 to 80 mg tablets, single agent)?
Its value is “approximately dose proportional”.

And the Cmax [2, 8]?
The Cmax was 35.7 ± 10.8 ng/mL.

What about the AUC(0-t) [2, 8] of the same molecule?
Its AUC(0-t) is 510 ± 193 ng·h/mL.

And the Tmax ([2]; 10 mg, 10 mg PIB, First Dose (Day 1), median (min, max), read-out: Tmax)?
Its Tmax is 1 h.

What about the Cmax [2, 9] of the same molecule?
Its Cmax is 95.2 ± 17.8 ng/mL.

What about the AUC(0-t) [2, 9] of the same molecule?
Its AUC(0-t) is 971 ± 398 ng·h/mL.

And the half-life ([2]; 10 mg, 10 mg PIB, Steady-State (Day 28), mean ± SD, read-out: t1/2 (terminal phase half-life) (converted))?
Its half-life is 19.9 ± 1.3 h.

What about the Tmax at 28 days ([2]; 10 mg, 10 mg PIB, Steady-State (Day 28), median (min, max)) of the same molecule?
The Tmax at 28 days was 2 h.

What about the Cmax [2, 10] of the same molecule?
Its Cmax is 91.9 ± 13.4 ng/mL.

And the AUC(0-t) [2, 10]?
The AUC(0-t) was 1000 ± 338 ng·h/mL.

And the Tmax ([2]; 20 mg, 20 mg PIB, First Dose (Day 1), median (min, max), read-out: Tmax)?
Its Tmax is 2 h.

And the Cmax [2, 11]?
Its Cmax is 330 ± 409 ng/mL.

What about the AUC(0-t) [2, 11] of the same molecule?
The AUC(0-t) was 3270 ± 4010 ng·h/mL.

And the half-life ([2]; 20 mg, 20 mg PIB, Steady-State (Day 28), N = 3, mean ± SD, read-out: t1/2 (terminal phase half-life) (converted))?
Its half-life is 21 ± 5.7 h.

What about the Tmax at 28 days ([2]; 20 mg, 20 mg PIB, Steady-State (Day 28), N = 3, median (min, max)) of the same molecule?
Its Tmax at 28 days is 2 h.

What about the Cmax [2, 12] of the same molecule?
The Cmax was 342 ± 225 ng/mL.

And the AUC(0-t) [2, 12]?
Its AUC(0-t) is 3680 ± 1550 ng·h/mL.

What about the Tmax ([2]; 20 mg, 20 mg Tablet, First Dose (Day 1), median (min, max), read-out: Tmax) of the same molecule?
Its Tmax is 6 h.

And the Cmax [2, 13]?
The Cmax was 422 ± 241 ng/mL.

What about the AUC(0-t) [2, 13] of the same molecule?
Its AUC(0-t) is 5030 ± 2560 ng·h/mL.

What about the half-life ([2]; 20 mg, 20 mg Tablet, Steady-State (Day 28), mean ± SD, read-out: t1/2 (terminal phase half-life) (converted)) of the same molecule?
Its half-life is 27.8 ± 4.74 h.

And the Tmax ([2]; 20 mg, 20 mg Tablet, Steady-State (Day 28), median (min, max), read-out: Tmax)?
Its Tmax is 1 h.

What about the half-life at 28 days ([2]; 20 mg, PIB 10 and 20 mg, steady-state Day 28, read-out: mean terminal half-life (t1/2) (converted)) of the same molecule?
The half-life at 28 days was about 20 h.

What about the Cmax [2, 14] of the same molecule?
Its Cmax is 521 ± 202 ng/mL.

What about the AUC(0-t) [2, 14] of the same molecule?
The AUC(0-t) was 6350 ± 1540 ng·h/mL.

And the Tmax ([2]; 40 mg, 40 mg Tablet, First Dose (Day 1), median (min, max), read-out: Tmax)?
Its Tmax is 5 h.

What about the Cmax [2, 15] of the same molecule?
Its Cmax is 656 ± 242 ng/mL.

What about the AUC(0-t) [2, 15] of the same molecule?
The AUC(0-t) was 8190 ± 1560 ng·h/mL.

What about the half-life ([2]; 40 mg, 40 mg Tablet, Steady-State (Day 28), mean ± SD, read-out: t1/2 (terminal phase half-life) (converted)) of the same molecule?
Its half-life is 24.2 ± 5.01 h.

And the Tmax ([2]; 40 mg, 40 mg Tablet, Steady-State (Day 28), median (min, max), read-out: Tmax)?
Its Tmax is 3 h.

What about the Cmax [2, 16] of the same molecule?
Its Cmax is 935 ± 348 ng/mL.

What about the AUC(0-t) [2, 16] of the same molecule?
Its AUC(0-t) is 11000 ± 6290 ng·h/mL.

And the Tmax ([2]; 80 mg, 80 mg Tablet, First Dose (Day 1), median (min, max), read-out: Tmax)?
The Tmax was 2 h.

What about the Cmax [2, 17] of the same molecule?
The Cmax was 1440 ± 454 ng/mL.

What about the AUC(0-t) [2, 17] of the same molecule?
Its AUC(0-t) is 16900 ± 3120 ng·h/mL.

What about the half-life ([2]; 80 mg, 80 mg Tablet, Steady-State (Day 28), mean ± SD, read-out: t1/2 (terminal phase half-life) (converted)) of the same molecule?
Its half-life is 19.3 ± 3.35 h.

And the Tmax ([2]; 80 mg, 80 mg Tablet, Steady-State (Day 28), median (min, max), read-out: Tmax)?
The Tmax was 3 h.

And the Tmax ([2]; first dose, tablets 20 to 80 mg, read-out: median Tmax)?
Its Tmax is 2 to 6 h.

What about the half-life ([2]; tablet (as of April 2021), read-out: terminal half-life at steady state) of the same molecule?
Its half-life is 24 to 28 h.

What about the half-life at 28 days ([2]; tablets, steady-state, read-out: mean t1/2) of the same molecule?
Its half-life at 28 days is 19 to 28 h.

And the “exposure (AUC0-24) of 20-mg tablet higher than 20 mg PIB” value ([2]; steady-state Day 28)?
The value was “approximately 50%”.

And the “accumulation in exposure (Cmax and AUC0-24) at steady-state” value ([2]; tablets, after 28 days of daily dosing)?
Its value is under 2 fold.

And the “mean apparent CL/F” value ([2]; tablets, steady-state)?
Its value is “approximately 5 L/hr”.
